Laboratory results as given in patent US4977179A, “Proline derivatives” (Otsuka Pharmaceutical Factory, Inc., priority 1986, dated 1990).

Target: T1, angiotensin-converting enzyme (ACE) (Rattus norvegicus, UniProt P47820)
T1 construct: enzyme solution prepared from rat lung; from tissue; host or cells: rat lung
T1 sequence (P47820 36-1313): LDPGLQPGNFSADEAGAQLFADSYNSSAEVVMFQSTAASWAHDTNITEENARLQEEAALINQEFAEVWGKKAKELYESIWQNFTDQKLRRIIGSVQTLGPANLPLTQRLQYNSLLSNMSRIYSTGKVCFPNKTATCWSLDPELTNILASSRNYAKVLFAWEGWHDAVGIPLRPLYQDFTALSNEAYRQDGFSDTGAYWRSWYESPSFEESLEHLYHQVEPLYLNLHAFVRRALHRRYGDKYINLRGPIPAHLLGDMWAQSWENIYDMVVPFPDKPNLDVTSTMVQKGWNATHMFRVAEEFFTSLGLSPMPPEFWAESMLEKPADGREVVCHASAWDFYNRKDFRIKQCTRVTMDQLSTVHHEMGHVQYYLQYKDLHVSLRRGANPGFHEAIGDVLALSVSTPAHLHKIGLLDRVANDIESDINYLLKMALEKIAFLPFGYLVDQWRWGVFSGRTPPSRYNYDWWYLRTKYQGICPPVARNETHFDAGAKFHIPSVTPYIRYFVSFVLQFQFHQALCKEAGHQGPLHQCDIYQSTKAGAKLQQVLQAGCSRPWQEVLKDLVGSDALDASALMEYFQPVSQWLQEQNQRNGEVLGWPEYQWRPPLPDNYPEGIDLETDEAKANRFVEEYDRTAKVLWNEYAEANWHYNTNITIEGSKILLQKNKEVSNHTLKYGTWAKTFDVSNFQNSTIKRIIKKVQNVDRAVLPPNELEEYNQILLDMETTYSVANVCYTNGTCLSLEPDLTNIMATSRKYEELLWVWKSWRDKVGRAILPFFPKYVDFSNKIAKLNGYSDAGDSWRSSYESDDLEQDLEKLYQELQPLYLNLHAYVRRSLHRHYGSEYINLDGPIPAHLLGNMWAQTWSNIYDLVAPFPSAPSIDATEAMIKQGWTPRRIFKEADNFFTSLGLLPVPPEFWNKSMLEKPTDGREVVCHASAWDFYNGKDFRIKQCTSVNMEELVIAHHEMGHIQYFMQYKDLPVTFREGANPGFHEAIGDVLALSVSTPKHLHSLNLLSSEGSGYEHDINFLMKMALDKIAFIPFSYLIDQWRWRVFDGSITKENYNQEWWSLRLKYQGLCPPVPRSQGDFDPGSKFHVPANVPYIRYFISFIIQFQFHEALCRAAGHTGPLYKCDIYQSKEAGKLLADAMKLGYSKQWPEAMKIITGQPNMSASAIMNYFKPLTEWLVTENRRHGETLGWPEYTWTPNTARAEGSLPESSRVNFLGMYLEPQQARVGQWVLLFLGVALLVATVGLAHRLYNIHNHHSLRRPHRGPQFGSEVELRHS
Assay: Inhibitory activity against angiotensin-converting enzyme (ACE)
Assay type: biochemical
Conditions: enzyme solution from rat lung; substrate hippuryl-histidyl-leucine; phosphate buffer pH 8.3, 37° C., HPLC of hippuric acid; samples all used in the form of dicarboxylic acid
Method: Inhibitory activity against angiotensin-converting enzyme (ACE)
A […] of the compound of the present invention was dissolved in 50 ml of a phosphate buffer (pH 8.3). The solution was diluted with the same phosphate buffer as above to prepare a sample solution.
A 100 μl quantity of an enzyme solution prepared from rat lung was mixed with 100 μl of the sample solution. The mixture was gently shaken at 37° C. for 10 minutes. To the mixture was added 100 μl of a solution containing 6.99 mM of hippuryl-histidyl-leucine (product of Peptide Institute, Inc., Japan) as a substrate. The resulting mixture was incubated at 37° C. for 10 minutes. The reaction was terminated by addition of 100 μl of a 10% metaphosphoric acid to the reaction mixture and the mixture was neutralized with 1N-sodium hydroxide. A 10 μl quantity of the resulting mixture was subjected to high performance liquid chromatography (HPLC) for analysis. The area valve (S) of the hippuric acid formed by the reaction was measured. A control area valve (R) was measured by repeating the same procedure as above except that 100 μl of phosphate buffer (pH 8.3) was used in place of the sample solution.
A percent inhibition was calculated by the following equation: [formula] […]

CCCCOCCSC[C@H](NC(C)C(=O)N1CCC[C@H]1C(=O)O)C(=O)O (single isomer, unassigned) [Example 22]
IC50: 0.114 nM
